Patent US20160115540A1, “PRODRUGS AND DRUGS” (Biogen MA Inc., priority 2013, published 2016)
Counter-ions that a name gives are not always drawn.

Test system: blood, cerebellum, spinal cord
Test: Transcriptional profiling, chronic dosing, EAE mice: blood, cerebellum, spinal cord
Type: in vivo
Conditions: for Number of differentially expressed genes identified: Cerebellum / Number of differentially expressed genes identified: Spinal Cord / Number of differentially expressed genes identified: Whole blood: EAE, Chronic Dosing
Method: 2011 March 134(Pt3): 678-92. […] FIG. 17 depicts exemplary immunophenotyping panels used to analyze various immune cell populations (e.g., T cells, T regulatory cells, NK cells, B cells, myeloid cells). […] Animals were exposed to CO2 and whole blood collected via cardiac puncture. Two 100 μl aliquots of whole blood were collected in 1.5 mL microcentrifuge tubes and snap frozen in liquid nitrogen. Peripheral (liver, spleen, kidney and jejunum) and CNS brain (cerebellum, hippocampus, striatum and cortex) tissues were harvested and snap frozen in liquid nitrogen, with special care taken to collect tissues of similar size and from the same location. All samples were stored at -80° C. until RNA extraction was conducted. For RNA preparation, frozen tissues were placed in 2 mL RNAse-free 96-well blocks with 1.5 mL QIAzol Lysis Reagent (QIAgen) and a 3.2 mm stainless steel bead (BioSpec Products, Bartlesville, Okla.). Tissues were disrupted for four cycles of 45 seconds in a Mini-Beadbeater (Biospec Products). RNA was extracted in chloroform and the aqueous phase was mixed with an equal volume of 70% ethanol. Extracted RNA was applied to RNeasy 96 plates and purified by the spin method according to the manufacturer's protocol (RNeasy 96 Universal Tissue Protocol, QIAgen, Hilden Germany). 50 ul of snap frozen mouse blood was re-suspended in lysis buffer with proteinase K and arrayed into deep-well plates for automated RNA extraction. RNA extractions were completed on […] (Beckman Coulter, Indianapolis, Ind.) using Agencourt RNAdvance Blood kit (Part number A35604) according to the manufacturer's specifications. RNA integrity was assessed using the HT RNA reagent kit (Part number 760410, Caliper Life Sciences, Hopkinton, Mass.) using a LabChip GX (PerkinElmer, Waltham, Mass.). RNA samples with a RQS score of >8.0 were considered high quality for downstream microarray processing. […] Washing and staining of the hybridized arrays were completed as described in the GeneChip Expression analysis technical manual for HT plate arrays using the Genechip® Array Station (Affymetrix, Santa Clara, Calif.) with modifications as described in […] et al. The processed GeneChip® plate arrays were scanned using GeneTitan scanner (Affymetrix, Santa Clara, Calif.). Affymetrix scans were subject to quality control (QC) measures. These tests included a visual inspection of the distribution of raw signal intensities and an assessment of RNA degradation, relative log expression (RLE), and normalized unscaled standard error (NUSE). All sample scans that passed these QC metrics were included in the analysis. […] Nucleic Acids Res 2003; 31:e15; Li C, et al. Genome Biol 2001; 2:[…]0032). […] Stat Appl Genet Mol Biol 2004; 3:Article3). […] Springer Science+Business Media 2005).

[1] = 100 mpk DMF-vs-90 mpk MMF, 7 h after last dosing
[2] = 100 mpk DMF-vs-90 mpk MMF, 12 h after last dosing
[3] = 100 mpk DMF-vs-Vehicle, 7 h after last dosing
[4] = 100 mpk DMF-vs-Vehicle, 12 h after last dosing
[5] = spinal cord, 100DMF-vs-90MMF, 7 h
[6] = spinal cord, 100DMF-vs-90MMF, 12 h
[7] = spinal cord, 100DMF-vs-Veh, 7 h
[8] = spinal cord, 100DMF-vs-Veh, 12 h
[9] = tissue not given, 100DMF-vs-90MMF, 7 h
[10] = tissue not given, 100DMF-vs-90MMF, 12 h
[11] = 90 mpk MMF-vs-Vehicle, 7 h after last dosing
[12] = 90 mpk MMF-vs-Vehicle, 12 h after last dosing
[13] = spinal cord, 100MMF-vs-Veh, 7 h
[14] = spinal cord, 100MMF-vs-Veh, 12 h
[15] = tissue not given, 100MMF-vs-Veh, 12 h

COC(=O)/C=C/C(=O)OC [DMF, dimethyl fumarate]
Number of differentially expressed genes identified: Cerebellum [1]: 2
Number of differentially expressed genes identified: Spinal Cord [1]: 2
Number of differentially expressed genes identified: Whole blood [1]: 0
Number of differentially expressed genes identified: Cerebellum [2]: 3
Number of differentially expressed genes identified: Spinal Cord [2]: 40
Number of differentially expressed genes identified: Whole blood [2]: 0
Number of differentially expressed genes identified: Cerebellum [3]: 0
Number of differentially expressed genes identified: Spinal Cord [3]: 3
Number of differentially expressed genes identified: Whole blood [3]: 8
Number of differentially expressed genes identified: Cerebellum [4]: 0
Number of differentially expressed genes identified: Spinal Cord [4]: 3
Number of differentially expressed genes identified: Whole blood [4]: 8
FC 2900055J20Rik (1430675_PM_at) [5]: −1.58
FC LOC100047123 (1446154_PM_at) [5]: −1.56
FC 1423020_PM_at (no gene symbol) [6]: 1.59
FC 1440425_PM_at (no gene symbol) [6]: 1.57
FC 1440449_PM_at (no gene symbol) [6]: 1.61
FC 1441606_PM_at (no gene symbol) [6]: 1.57
FC 1442650_PM_at (no gene symbol) [6]: 1.92
FC 1442813_PM_at (no gene symbol) [6]: 2.21
FC 1443212_PM_at (no gene symbol) [6]: 1.82
FC 1443237_PM_at (no gene symbol) [6]: 1.59
FC 1444001_PM_at (no gene symbol) [6]: 1.58
FC 1446481_PM_at (no gene symbol) [6]: 1.59
FC 1447354_PM_at (no gene symbol) [6]: 1.54
FC 1458147_PM_at (no gene symbol) [6]: 1.60
FC 1458697_PM_at (no gene symbol) [6]: 1.72
FC 1459235_PM_at (no gene symbol) [6]: 1.65
FC 1459288_PM_at (no gene symbol) [6]: 1.66
FC 1459310_PM_at (no gene symbol) [6]: 1.87
FC 2410089E03Rik 1443422_PM_at [6]: 1.55
FC 2410089E03Rik (1458493_PM_a_at) [6]: 2.00
FC 4933439F18Rik (1427068_PM_x_at) [6]: 1.52
FC 6330436F06Rik (1433015_PM_at) [6]: 1.52
FC 9330156P08Rik (1458073_PM_at) [6]: 2.08
FC A230006K03Rik (1432408_PM_a_at) [6]: 1.59
FC A730034C02 /// Mtap2 (1421327_PM_at) [6]: 1.69
FC B230112I24Rik (1433187_PM_at) [6]: 1.64
FC BC066028 (1439850_PM_at) [6]: 1.56
FC Cdk14 (1453956_PM_a_at) [6]: 1.76
FC Dnajc27 (1434946_PM_at) [6]: 1.85
FC Dnm3 (1446265_PM_at) [6]: 1.54
FC Fgf14 (1449958_PM_a_at) [6]: 1.76
FC Flnb (1445534_PM_at) [6]: 1.55
FC Gzma (1417898_PM_a_at) [6]: −5.32
FC Htr2c (1450477_PM_at) [6]: 1.65
FC Kif22 (1423813_PM_at) [6]: −1.68
FC Per3 (1442243_PM_at) [6]: 1.54
FC Pole (1448650_PM_a_at) [6]: −1.60
FC Rgs7bp (1437559_PM_at) [6]: 1.50
FC Sema6d (1446536_PM_at) [6]: 1.57
FC Sgol1 (1418919_PM_at) [6]: −1.61
FC Slc25a27 (1440090_PM_at) [6]: 1.56
FC Zfp398 (1456639_PM_at) [6]: 1.57
FC Aox1 (1419435_PM_at) [7]: 1.68
FC Rnf128 (1418318_PM_at) [7]: 1.72
FC Rnf128 (1449036_PM_at) [7]: 1.60
FC 1446104_PM_at (no gene symbol) [8]: 1.57
FC Gzma (1417898_PM_a_at) [8]: −4.64
FC Kif22 (1423813_PM_at) [8]: −1.62
FC 1459289_PM_at (no gene symbol) [9]: 1.52
FC Nr4a2 (1455034_PM_at) [9]: −1.51
FC 1444901_PM_at (no gene symbol) [10]: −1.68
FC Cyp4f16 /// Gm9705 (1430172_PM_a_at) [10]: 1.54
FC Nr4a3 (1438796_PM_at) [10]: −1.82

COC(=O)/C=C/C(=O)O [MMF, monomethyl fumarate]
Number of differentially expressed genes identified: Cerebellum [11]: 2
Number of differentially expressed genes identified: Spinal Cord [11]: 7
Number of differentially expressed genes identified: Whole blood [11]: 19
Number of differentially expressed genes identified: Cerebellum [12]: 3
Number of differentially expressed genes identified: Spinal Cord [12]: 2
Number of differentially expressed genes identified: Whole blood [12]: 7
FC Agxt2l1 (1431406_PM_at) [13]: 1.78
FC Cxcl11 (1419697_PM_at) [13]: −3.36
FC Ddx58 (1436562_PM_at) [13]: −1.67
FC Ifi44 (1423555_PM_a_at) [13]: −1.99
FC Ifit1 (1450783_PM_at) [13]: −1.67
FC Plac8 (1451335_PM_at) [13]: −2.04
FC Tor3a (1450454_PM_at) [13]: −1.57
FC 1439946_PM_at (no gene symbol) [14]: −1.62
FC Dbp (1418174_PM_at) [14]: −1.58
FC 1459557_PM_at (no gene symbol) (tissue not given, 100MMF-vs-Veh, 7 h): 2.30
FC 1442025_PM_a_at (no gene symbol) [15]: −1.84
FC 1442026_PM_at (no gene symbol) [15]: −1.91
FC 4933423P22Rik (1454223_PM_at) [15]: 1.53
